Results as given in publication PMC11035696, “Prospective de novo drug design with deep interactome learning” (Nature Communications, 2024).
Values joined by “and” are separate entries in the source; they are usually repeats but may differ in a detail not shown here. Equal entries are not always repeated.

Key:
[1] = system: NICOTINIC RECEPTOR, NEURONAL (α-BGTX insens.); test: Safety off-target panel, binding; set-up: species or system Human; conditions: 10 µM, single point
Excerpt: (§1) Table S9-S12 list all targets, their species, inhibition (%) and assay type for the experiments conducted in the
(§2) off-targets. […] The numbers for mean
(§3) inhibition (%) represent single point measurements.
(§4) off-targets. […] The numbers for
(§5) mean inhibition (%) represent single point measurements.

[2] = molecular target: T1, retinoic acid receptor (RAR)α (Homo sapiens, UniProt P10276); test: Nuclear receptor selectivity profiling, hybrid reporter gene assay, RARα; assay type: cell-based
T1 construct: RARα (pFA-CMV-hRARα-LBD[104], 1 μM tretinoin); expressed in transfected cells; host or cells: HEK293T
T1 sequence (P10276 183-417 limits assumed): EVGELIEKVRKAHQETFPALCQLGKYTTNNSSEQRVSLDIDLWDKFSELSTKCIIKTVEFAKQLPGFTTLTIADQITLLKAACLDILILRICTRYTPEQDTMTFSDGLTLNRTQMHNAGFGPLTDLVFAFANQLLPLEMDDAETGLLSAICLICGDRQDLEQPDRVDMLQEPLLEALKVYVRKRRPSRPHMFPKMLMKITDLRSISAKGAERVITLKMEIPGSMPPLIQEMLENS
Experimental: (§6) Compounds 1–3 were characterized in a hybrid reporter gene assay for their agoniztic effect on human nuclear receptors PPARα/γ/δ, RXRα, FXRα, RARα in HEK293T cells. Compound 1 was tested in an isothermal titration calorimetry (ITC) assay to measure direct binding affinity to the ligand-binding domain of PPARγ. ADME properties were measured in standardized assays at Roche.
PPAR activation was determined in uniform Gal4-hybrid reporter gene assays for the PPARα, PPARγ and PPARδ isoforms in HEK293T cells (German Collection of Microorganisms and Cell Culture GmbH, DSMZ) which were transiently transfected with pFR-Luc (Stratagene, La Jolla, CA, USA; reporter) and pRL-SV40 (Promega, Madison, WI, USA; internal control) and one pFA-CMV-hPPAR-LBD[97] clone, coding for the hinge region and ligand binding domain of the canonical isoform of human PPARα, PPARγ, PPARδ or respectively. Cells were cultured in Dulbecco’s modified Eagle’s medium (DMEM), high glucose supplemented with 10% fetal calf serum (FCS), sodium pyruvate (1 mM), penicillin (100 U ⋅ ml^-1), and streptomycin (100 μg ⋅ ml^-1) at 37 °C and 5% CO2 and seeded in 96-well plates (3 × 10^4 cells per well). After 24 h, medium was changed to Opti-MEM without supplements and cells were transiently transfected using Lipofectamine LTX reagent (Invitrogen) according to the manufacturer’s protocol. Five hours after transfection, cells were incubated with the test compounds in Opti-MEM supplemented with penicillin (100 U ⋅ ml^-1), streptomycin (100 μg ⋅ ml^-1) and 0.1% DMSO for 16 h before luciferase activity was measured using the Dual-Glo Luciferase Assay System (Promega) according to the manufacturer’s protocol on a Tecan Spark luminometer (Tecan Deutschland GmbH, Germany). Firefly luminescence was divided by Renilla luminescence and multiplied by 1000 resulting in relative light units (RLU) to normalize for transfection efficiency and cell growth. Fold activation was obtained by dividing the mean RLU of a test compound by the mean RLU of the untreated control. All samples were tested in at least three biologically independent experiments in duplicates. For dose-response curve fitting and calculation of EC50 values, the equation “[Agonist] versus response (variable slope—four parameters)” was used in GraphPad Prism (version 7.00, GraphPad Software, La Jolla, CA, USA) with fold activation data. The reference agonizts GW7647 (PPARα)[98],[99], pioglitazone (PPARγ)[100],[101] and L165,041 (PPARδ)[102],[103] were used to validate the assays and to monitor assay performance. Nuclear receptor selectivity profiling was performed with corresponding pFA-CMV-hNR-LBD clones and suitable reference agonizts on RARα (pFA-CMV-hRARα-LBD[104], 1 μM tretinoin), LXRα (pFA-CMV-hLXRα-LBD[104], 1 μM TO901317) and RXRα (pFA-CMV-h RXRα-LBD[105], 1 μM Bexarotene).

human PPARδ = molecular target: T2, human PPARδ (Homo sapiens, UniProt Q03181); test: Gal4-hybrid reporter gene assay, PPARδ activation; assay type: cell-based
T2 construct: expressed in transfected cells; host or cells: HEK293T
T2 sequence (Q03181 211-439 limits assumed): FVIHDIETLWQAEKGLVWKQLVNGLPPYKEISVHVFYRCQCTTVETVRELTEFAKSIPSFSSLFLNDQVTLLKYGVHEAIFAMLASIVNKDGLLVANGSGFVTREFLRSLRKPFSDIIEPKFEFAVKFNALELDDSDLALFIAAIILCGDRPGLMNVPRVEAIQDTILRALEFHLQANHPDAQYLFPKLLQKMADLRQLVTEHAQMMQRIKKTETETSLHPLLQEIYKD
Experimental: as §6
PPAR activation was determined in uniform Gal4-hybrid reporter gene assays for the PPARα, PPARγ and PPARδ isoforms in HEK293T cells (German Collection of Microorganisms and Cell Culture GmbH, DSMZ) which were transiently transfected with pFR-Luc (Stratagene, La Jolla, CA, USA; reporter) and pRL-SV40 (Promega, Madison, WI, USA; internal control) and one pFA-CMV-hPPAR-LBD[97] clone, coding for the hinge region and ligand binding domain of the canonical isoform of human PPARα, PPARγ, PPARδ or respectively. Cells were cultured in Dulbecco’s modified Eagle’s medium (DMEM), high glucose supplemented with 10% fetal calf serum (FCS), sodium pyruvate (1 mM), penicillin (100 U ⋅ ml^-1), and streptomycin (100 μg ⋅ ml^-1) at 37 °C and 5% CO2 and seeded in 96-well plates (3 × 10^4 cells per well). After 24 h, medium was changed to Opti-MEM without supplements and cells were transiently transfected using Lipofectamine LTX reagent (Invitrogen) according to the manufacturer’s protocol. Five hours after transfection, cells were incubated with the test compounds in Opti-MEM supplemented with penicillin (100 U ⋅ ml^-1), streptomycin (100 μg ⋅ ml^-1) and 0.1% DMSO for 16 h before luciferase activity was measured using the Dual-Glo Luciferase Assay System (Promega) according to the manufacturer’s protocol on a Tecan Spark luminometer (Tecan Deutschland GmbH, Germany). Firefly luminescence was divided by Renilla luminescence and multiplied by 1000 resulting in relative light units (RLU) to normalize for transfection efficiency and cell growth. Fold activation was obtained by dividing the mean RLU of a test compound by the mean RLU of the untreated control. […]

XANTHINE OXIDASE = XANTHINE OXIDASE (Bos taurus, UniProt P80457); test: Safety off-target panel, enzymatic; assay type: biochemical, Bovine; conditions: single point
Sequence of XANTHINE OXIDASE (P80457 whole entry): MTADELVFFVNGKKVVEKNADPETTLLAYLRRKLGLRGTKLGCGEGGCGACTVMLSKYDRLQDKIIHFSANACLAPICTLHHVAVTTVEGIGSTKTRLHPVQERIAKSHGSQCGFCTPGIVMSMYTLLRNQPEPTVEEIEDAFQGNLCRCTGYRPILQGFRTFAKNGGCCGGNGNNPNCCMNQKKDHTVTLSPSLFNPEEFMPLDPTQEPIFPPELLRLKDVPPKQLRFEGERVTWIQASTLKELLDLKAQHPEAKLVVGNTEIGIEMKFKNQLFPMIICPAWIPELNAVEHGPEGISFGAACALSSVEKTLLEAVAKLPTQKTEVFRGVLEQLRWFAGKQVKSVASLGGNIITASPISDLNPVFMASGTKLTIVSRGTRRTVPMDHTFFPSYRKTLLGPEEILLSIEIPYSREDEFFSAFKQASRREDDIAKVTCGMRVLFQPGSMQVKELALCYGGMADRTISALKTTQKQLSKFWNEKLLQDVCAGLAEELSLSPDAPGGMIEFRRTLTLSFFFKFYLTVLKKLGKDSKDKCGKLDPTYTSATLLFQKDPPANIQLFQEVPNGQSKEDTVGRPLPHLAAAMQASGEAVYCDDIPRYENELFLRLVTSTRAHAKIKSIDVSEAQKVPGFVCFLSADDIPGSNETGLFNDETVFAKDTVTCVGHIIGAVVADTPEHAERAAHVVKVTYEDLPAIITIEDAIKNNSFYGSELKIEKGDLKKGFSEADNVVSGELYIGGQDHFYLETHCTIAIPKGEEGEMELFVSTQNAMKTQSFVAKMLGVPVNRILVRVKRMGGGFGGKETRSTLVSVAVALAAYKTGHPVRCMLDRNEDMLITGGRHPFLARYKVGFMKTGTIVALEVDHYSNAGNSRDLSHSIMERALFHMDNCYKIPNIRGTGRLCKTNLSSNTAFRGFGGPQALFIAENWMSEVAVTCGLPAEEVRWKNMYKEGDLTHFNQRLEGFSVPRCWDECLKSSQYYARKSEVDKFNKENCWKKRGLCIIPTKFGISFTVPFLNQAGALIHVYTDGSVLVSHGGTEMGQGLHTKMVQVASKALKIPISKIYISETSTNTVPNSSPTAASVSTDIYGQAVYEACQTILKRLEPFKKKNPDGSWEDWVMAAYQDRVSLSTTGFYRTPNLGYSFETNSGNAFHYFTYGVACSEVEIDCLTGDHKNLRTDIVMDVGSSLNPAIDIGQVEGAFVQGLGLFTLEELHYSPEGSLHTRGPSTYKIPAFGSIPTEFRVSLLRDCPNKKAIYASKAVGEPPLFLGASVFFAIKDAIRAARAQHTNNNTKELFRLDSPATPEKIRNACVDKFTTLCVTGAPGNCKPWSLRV
Excerpt: as §1, §2, §3, §4, §5

PCP RECEPTOR = test: Safety off-target panel, binding; set-up: species or system Rat; conditions: 10 µM, single point
Excerpt: as §1, §2, §3, §4, §5

[3] = system: GABA-A (BENZODIAZAPINE BINDING SITE); test: Safety off-target panel, binding; set-up: species or system Rat; conditions: 10 µM, single point
Excerpt: as §1, §2, §3, §4, §5

[4] = system: CA2+ CHANNEL (DILTIAZEM SITE); test: Safety off-target panel, binding; set-up: species or system Rat; conditions: 10 µM, single point
Excerpt: as §1, §2, §3, §4, §5

[5] = Lipophilicity (LogD pH 7.4); assay type: physicochemical
Experimental: as §6
SI11Absorption Distribution Metabolism and Excretion and Toxicity Data
To assess the drug-like characteristics of the newly designed PPAR modulators, a series of tests were conducted covering various aspects of absorption, distribution, metabolism, and excretion (ADME) properties. Specifically, these assessments included the parallel artificial membrane permeability assay (PAMPA) with permeation co- […]
efficients ([…]), LogD measurements, microsomal clearance, hepatocyte clearance, P-glycoprotein (Pgp) efflux ratio and binding and the unbound free fraction. […]
Table S14: Absorption distribution metabolism and excretion (ADME) properties of compounds 1 and 2. The […]
values for […], LogD, protein binding, P-glycoprotein (Pgp) efflux ratio and permeability, and hepato-cyte clearance are presented as the mean and standard deviation, with a sample size of N = 3, i.e., 3 technical replicates each. The values for microsomal clearance and CYP-inhibition represent single point measurements. […]

Structure (SMILES): Cc1nnc(-c2ccc(OCCCOc3ccc(CCC(=O)O)c(F)c3)c(F)c2)s1 [Compound 1]
- Mean inhibition (%) [1]: -6.9%
- RARα reporter activation, replicate values (DMSO ctrl = 1,000) ([2]; 3 µM): 0,775 and 0,698 and 0,825
- RARα reporter activation, replicate values (DMSO ctrl = 1,000) ([2]; 10 µM): 1,145 and 0,633 and 0,940
- EC50 (human PPARδ; HEK293T cells): 240 ± 50 nM
- inhibition at 10 µM (XANTHINE OXIDASE): -3.1%
- Mean inhibition (%) (PCP RECEPTOR): -12.0%
- Mean inhibition (%) [3]: 12.5%
- Mean inhibition (%) [4]: -4.7%
- logD [5]: 1.5

Structure (SMILES): COc1ccc(Oc2ccc3ncn(CCOc4ccc(CCC(=O)O)cc4)c3c2)cc1 [Compound 2]
- Mean inhibition (%) [1]: -2.9%
- RARα reporter activation, replicate values (DMSO ctrl = 1,000) ([2]; 3 µM): 1,038 and 0,832 and 1,499
- RARα reporter activation, replicate values (DMSO ctrl = 1,000) ([2]; 10 µM): 1,361 and 1,194 and 1,664
- activity on PPARδ (human PPARδ; result in words): no discernible impact
- inhibition at 10 µM (XANTHINE OXIDASE): 0.4%
- Mean inhibition (%) (PCP RECEPTOR): 11.8%
- Mean inhibition (%) [3]: 57.8%
- Mean inhibition (%) [4]: -11.7%
- logD [5]: 1.7
